Converted amounts (≈) assume the structure as drawn. Like-named read-outs stand apart in the source and are kept apart here.
What was measured:
[1] = system: HIV-1 IIIB strain; test: MT-4 HIV Wild Type Virus Infection Assay (IIIB Virus); type: cell-based; details: Human immunodeficiency virus 1, IIIB, MT4, 120 h, MT-4 cells acutely infected with HIV-1 IIIB, 5 day incubation, Cell-titer glo
How it was run: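 MT-4 cells at 2×10^6 cells/ml in RPMI/10% FBS were acutely infected with HIV-1 IIIB for 1 h at 37° C, diluted 25× and added to serially diluted compounds. After 5 days at 37° C, viability read by CellTiter-Glo luminescence; EC50 from dose-response curves.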

[2] = molecular target: bovine intestinal alkaline phosphatase (Bos taurus (Bovine), UniProt P19111); test: BiALP: conversion by bovine intestinal alkaline phosphatase; type: in vitro ADME; details: 2 μM substrate, 100 ng/mL iALP, Tris pH 7.8, 37° C., 60 minutes
How it was run: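 Compounds at 2 μM final were incubated 60 min at 37° C in 0.1 M Tris-HCl pH 7.8 with 1 mM MgCl2 and 1 mM ZnCl2, with or without 100 ng/mL iALP (0.01 units/mL). Samples were quenched with acetonitrile/formic acid containing labetalol. Conversion was quantified by LC-MS peak area ratios against a 2 μM product standard.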

[3] = Intestinal S9 Assay (human GI S9); type: in vitro ADME; details: 1.0 mg/mL S9 protein; for half-life at 2 μM: human, TRIS pH 7.4, read-out: Human GI S9 T½; for Human GI S9 T½: 2 μM, TRIS pH 7.4
Experimental: (§1) Reagents. Stock solutions of test compounds in dimethyl sulfoxide (DMSO) having a final concentration of 10 mM were prepared and used in all experiments. Sekisui XenoTech (Kansas City, KS) provided pooled intestinal S9 fractions. All other chemicals were purchased from Sigma-Aldrich (St. Louis, MO) or VWR (West Chester, PA). Internal Standard/Quench (IS/Q) used to stop reactions was 100 nM labetalol in (by volume) formic acid (1%) and acetonitrile (99%).
(§2) Intestinal S9 Assay: For each test compound, an aliquot of the test compound was added to S9 stock diluted with TRIS buffer (100 mM TRIS, 1 mM ZnCl2, 1 mM MgCl2), pH 7.4, to obtain an incubation protein concentration of 1.0 mg/mL. The incubation was initiated by the addition of the substrate to the S9 reaction mixture to a final concentration of 2 μM. At 0, 10, 20, 30, 60 and 120 min, 25 μL aliquots of the reaction mixture were transferred to plates containing 225 μl of IS/Q solution. After quenching, the plates were centrifuged at 3000×g for 30 minutes. 150 μL aliquots of each supernatant were transferred to new plates and 150 μL water was added. Aliquots (10 μL) of the prepared samples were analyzed on a Thermo Q-Exactive mass spectrometer as described below.
(§3) Liquid Chromatography-Mass Spectrometry: Quantification of test compounds and control substrate was performed by analyte/internal standard peak area ratio (PAR) values measured on a Thermo Q-Exactive mass spectrometer coupled to a Dionex UltiMate 3000 HPLC with a Leap Technologies HTC PAL autosampler. The column used for analysis was a Thermo Scientific Hypersil GOLD (1.9 μm particle size, 50×2.1 mm). Mobile phase A consisted of 0.1% (v/v) formic acid in water. Mobile phase B consisted of 0.1% (v/v) formic acid in acetonitrile. Elution of analytes was achieved by a series of linear gradients varying the proportions of A and B. The mass spectrometer was calibrated on a weekly basis and mass tolerance of 5 ppm was used.
(§4) Data Analysis. Metabolic stabilities were determined by measuring the rates of disappearance of test compound and positive control substrate. Data (% of substrate remaining) were plotted on a semi-log scale and fitted using an exponential decline model:
(§5) where • Ct% of substrate remaining at time=t • C0% of substrate remaining at time=0 • t time • T½ half-life • The Half-life (T½) is determined by the following equation:
(§6) [formula] • Assuming a first-order reaction, the slope (k) is extrapolated from the aforementioned plotted data.

[4] = Intestinal S9 Assay (dog GI S9); type: in vitro ADME; details: dog, 1.0 mg/mL S9 protein, TRIS pH 7.4, read-out: Dog GI S9 T½
Experimental: as §1, §2, §3, §4, §5, §6

[5] = PBS Stability Assay; type: physicochemical; details: buffer, pH 7.4, 2 μM, phosphate buffered saline pH 7.4; read-out: PBS T½
How it was run: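 Test compound at 2 μM final was incubated in PBS, pH 7.4, and sampled at 0, 10, 20, 30, 60 and 120 min into acetonitrile/1% formic acid quench with labetalol internal standard. Remaining compound was quantified by LC-MS peak-area ratio, and half-life came from a first-order exponential fit.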

[6] = Solubility in FaSSIF; details: 23 °C, pH 6.5, fassif, thermodynamic from solid
How it was run: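 Concentration measured by HPLC-UV after solid compound was dosed at 5 mg/mL into pH 6.5 fasted-state simulated intestinal fluid containing taurocholate and lecithin (4:1 molar) and vortexed.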

bovine intestinal alkaline phosphatase, sequence (P19111 20-506): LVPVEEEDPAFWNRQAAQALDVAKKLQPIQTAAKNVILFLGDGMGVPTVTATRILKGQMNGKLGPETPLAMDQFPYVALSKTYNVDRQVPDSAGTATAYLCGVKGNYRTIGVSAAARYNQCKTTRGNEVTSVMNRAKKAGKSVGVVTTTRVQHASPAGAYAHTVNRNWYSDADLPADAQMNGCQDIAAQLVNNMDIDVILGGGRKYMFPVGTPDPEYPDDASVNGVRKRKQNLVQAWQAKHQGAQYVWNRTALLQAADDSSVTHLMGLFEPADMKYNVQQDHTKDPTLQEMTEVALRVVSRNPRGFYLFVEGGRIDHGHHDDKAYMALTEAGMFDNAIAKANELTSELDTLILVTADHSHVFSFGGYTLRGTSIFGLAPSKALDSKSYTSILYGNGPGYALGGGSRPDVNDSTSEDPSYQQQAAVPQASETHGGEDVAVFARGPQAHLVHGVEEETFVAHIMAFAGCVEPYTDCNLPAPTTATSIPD

| Compound | EC50 ([1]; read-out: EC50) [nM] | [Compound] [2] [nM] | half-life at 2 μM [3] [h] | half-life at 2 μM [4] [h] | half-life at 2 μM [5] [h] | EC50 [1] [nM] | Human GI S9 T½ [3] [h] | solubility at 2 h [6] [µg/mL] | solubility ([6]; FaSSIF (pH 6.5) solubility, FaSSIF pH 6.5, dose 5 mg/mL, 2-hour incubation, ambient temperature) [µg/mL] |
| --- | --- | --- | --- | --- | --- | --- | --- | --- | --- |
| COC(=O)N[C@H](C(=O)N[C@@H](Cc1ccc(C#Cc2cnc(N3CC4CCC(C3)N4C3COC3)nc2)cc1)[C@H](CN(Cc1c(F)cc(-c2ccn(C(F)F)n2)cc1F)NC(=O)[C@@H](NC(=O)OC)C(C)(C)C(F)(F)F)OC(=O)CC(C)(C)c1c(C)cc(C(=O)O)cc1OP(=O)(O)O)C(C)(C)C(F)(F)F [Example 3, 4-((5S,10S)-8-(4-(1-(difluoromethyl)-1H-pyrazol-3-yl)-2,6-difluorobenzyl)-14-methyl-10-((1S)-2-(4-((2-(8-(oxetan-3-yl)-3,8-diazabicyclo[3.2.1]octan-3-yl)pyrimidin-5-yl)ethynyl)phenyl)-1-((S)-4,4,4-trifluoro-2-((methoxycarbonyl)amino)-3,3-dimethylbutanamido)ethyl)-3,6,12-trioxo-5-(1,1,1-trifluoro-2-methylpropan-2-yl)-2,11-dioxa-4,7,8-triazapentadecan-14-yl)-3-methyl-5-(phosphonooxy)benzoic acid] | 96.6 | 1197.7 | 1.98 | 0.685 | 4.19 | – | – | – | – |
| COC(=O)N[C@H](C(=O)N[C@@H](Cc1ccc(C#Cc2cnc(N3CC4CCC(C3)N4C3COC3)nc2)cc1)[C@H](CN(Cc1c(F)cc(-c2ccn(C(F)F)n2)cc1F)NC(=O)[C@@H](NC(=O)OC)C(C)(C)C(F)(F)F)OC(=O)CC(C)(C)c1c(CC(=O)N2C[C@H](OC)C[C@H]2C(=O)O)cc(C)cc1OP(=O)(O)O)C(C)(C)C(F)(F)F [Example 59] | – | 1520.4 | – | 6.67 | – | 658 | 13.2 | 3600 (≈ 2230 µM) | – |
| C=C1C[C@@H](C(=O)O)N(C(=O)Cc2cc(C)cc(OP(=O)(O)O)c2C(C)(C)CC(=O)O[C@@H](CN(Cc2c(F)cc(-c3ccn(C(F)F)n3)cc2F)NC(=O)[C@@H](NC(=O)OC)C(C)(C)C(F)(F)F)[C@H](Cc2ccc(C#Cc3cnc(N4CC5CCC(C4)N5C4COC4)nc3)cc2)NC(=O)[C@@H](NC(=O)OC)C(C)(C)C(F)(F)F)C1 [Example 60] | 218 | 1457.7 | 12 | 5.81 | – | – | – | – | 3480 (≈ 2190 µM) |
| COC(=O)N[C@H](C(=O)N[C@@H](Cc1ccc(C#Cc2cnc(N3CC4CCC(C3)N4C3COC3)nc2)cc1)[C@H](CN(Cc1c(F)cc(-c2ccn(C(F)F)n2)cc1F)NC(=O)[C@@H](NC(=O)OC)C(C)(C)C(F)(F)F)OC(=O)CC(C)(C)c1c(CC(=O)N2CC(C)(C)C[C@H]2C(=O)O)cc(C)cc1OP(=O)(O)O)C(C)(C)C(F)(F)F [Example 61] | – | 1611.1 | 11.7 | 11.2 | – | 1890 | – | 2580 (≈ 1600 µM) | – |
| COC(=O)N[C@H](C(=O)N[C@@H](Cc1ccc(C#Cc2cnc(N3CC4CCC(C3)N4C3COC3)nc2)cc1)[C@H](CN(Cc1c(F)cc(-c2ccn(C(F)F)n2)cc1F)NC(=O)[C@@H](NC(=O)OC)C(C)(C)C(F)(F)F)OC(=O)CC(C)(C)c1c(CC(=O)Nc2cc(C#N)cc(C(=O)O)c2)cc(C)cc1OP(=O)(O)O)C(C)(C)C(F)(F)F [Example 63] | – | 1778.4 | – | 6.37 | – | 244 | 13.2 | 495 (≈ 304 µM) | – |
| COC(=O)N[C@H](C(=O)N[C@@H](Cc1ccc(C#Cc2cnc(N3CC4CCC(C3)N4C3COC3)nc2)cc1)[C@H](CN(Cc1c(F)cc(-c2ccn(C(F)F)n2)cc1F)NC(=O)[C@@H](NC(=O)OC)C(C)(C)C(F)(F)F)OC(=O)CC(C)(C)c1c(CC(=O)N2CCC[C@H]2C(=O)O)cc(C)cc1OP(=O)(O)O)C(C)(C)C(F)(F)F [Example 79] | – | 2057.5 | 10.2 | 9.38 | – | 645 | – | 2680 (≈ 1690 µM) | – |
| COC(=O)N[C@H](C(=O)N[C@@H](Cc1ccc(C#Cc2cnc(N3CC4CCC(C3)N4C3COC3)nc2)cc1)[C@H](CN(Cc1c(F)cc(-c2ccn(C(F)F)n2)cc1F)NC(=O)[C@@H](NC(=O)OC)C(C)(C)C(F)(F)F)OC(=O)CC(C)(C)c1c(CC(=O)Nc2cccc(S(=O)(=O)O)c2)cc(C)cc1OP(=O)(O)O)C(C)(C)C(F)(F)F [Example 105] | – | 1626.1 | 9.3 | 4.85 | 5.51 | 217 | – | – | – |
| COC(=O)N[C@H](C(=O)N[C@@H](Cc1ccc(C#Cc2cnc(N3CC4CCC(C3)N4C3COC3)nc2)cc1)[C@H](CN(Cc1c(F)cc(-c2ccn(C(F)F)n2)cc1F)NC(=O)[C@@H](NC(=O)OC)C(C)(C)C(F)(F)F)OC(=O)CC(C)(C)c1c(CC(=O)NC23CC4CC(C2)CC(C(=O)O)(C4)C3)cc(C)cc1OP(=O)(O)O)C(C)(C)C(F)(F)F [Example 108] | – | 2296.1 | 7.21 | 4.46 | – | 444 | – | < 1000 | – |
| COC(=O)N[C@H](C(=O)N[C@@H](Cc1ccc(C#Cc2cnc(N3CC4CCC(C3)N4C3COC3)nc2)cc1)[C@H](CN(Cc1c(F)cc(-c2ccn(C(F)F)n2)cc1F)NC(=O)[C@@H](NC(=O)OC)C(C)(C)C(F)(F)F)OC(=O)CC(C)(C)c1c(CC(=O)Nc2cc(C(=O)O)cc(S(C)(=O)=O)c2)cc(C)cc1OP(=O)(O)O)C(C)(C)C(F)(F)F [Example 109] | – | 1951.1 | 4.48 | 2.23 | – | 90.5 | – | < 1000 | – |
| COC(=O)N[C@H](C(=O)N[C@@H](Cc1ccc(C#Cc2cnc(N3CC4CCC(C3)N4C3COC3)nc2)cc1)[C@H](CN(Cc1c(F)cc(-c2ccn(C(F)F)n2)cc1F)NC(=O)[C@@H](NC(=O)OC)C(C)(C)C(F)(F)F)OC(=O)CC(C)(C)c1c(CC(=O)N2CC(C(=O)O)C2)cc(C)cc1OP(=O)(O)O)C(C)(C)C(F)(F)F [Example 110] | – | 1852.3 | 8.51 | 2.81 | – | 138 | – | 4420 (≈ 2820 µM) | – |
| COC(=O)N[C@H](C(=O)N[C@@H](Cc1ccc(C#Cc2cnc(N3CC4CCC(C3)N4C3COC3)nc2)cc1)[C@H](CN(Cc1c(F)cc(-c2ccn(C(F)F)n2)cc1F)NC(=O)[C@@H](NC(=O)OC)C(C)(C)C(F)(F)F)OC(=O)CC(C)(C)c1c(CC(=O)N2CCC[C@@H]2C(=O)O)cc(C)cc1OP(=O)(O)O)C(C)(C)C(F)(F)F [Example 111] | – | 1803.5 | 10.3 | 1.64 | – | 452 | – | 4760 (≈ 3010 µM) | – |
| COC(=O)N[C@H](C(=O)N[C@@H](Cc1ccc(C#Cc2cnc(N3CC4CCC(C3)N4C3COC3)nc2)cc1)[C@H](CN(Cc1c(F)cc(-c2ccn(C(F)F)n2)cc1F)NC(=O)[C@@H](NC(=O)OC)C(C)(C)C(F)(F)F)OC(=O)CC(C)(C)c1c(CC(=O)N2CCC(C(=O)O)CC2C(=O)O)cc(C)cc1OP(=O)(O)O)C(C)(C)C(F)(F)F (stereo partly drawn) [Example 113] | – | 1948 | 6.56 | 3.38 | – | 341 | – | 4140 (≈ 2530 µM) | – |

Source: US20250051375A1, “ANTI-HIV COMPOUNDS” (Gilead Sciences, Inc., priority 2023, published 2025)
